Test results as given in patent US20230391768A2, “IMIDAZOPYRIDINE DERIVATIVES AND AZA-IMIDAZOPYRIDINE DERIVATIVES AS JANUS KINASE 2 INHIBITORS AND USES THEREOF” (Dana-Farber Cancer Institute, Inc., priority 2018, published 2023).

Assays:
JAK2 = JAK2 (Homo sapiens (Human), UniProt O60674); test: JAK2 Z-Lyte biochemical assay; details: commercial JAK2 Z-Lyte assay from Invitrogen
Description: The JAK2 Z-Lyte biochemical assay was performed according to manufacturer's instructions (Life Technologies).

IRAK1 = IRAK1 (Homo sapiens (Human), UniProt P51617); test: KINOMEscan; format: binding; details: read-out: percent of control
Description: (§1) In vitro profiling of Compound I-2 (1 μM) was performed using the DiscoveRx KINOMEscan® platform.

FGFR1 = FGFR1 (Homo sapiens (Human), UniProt P11362); test: KINOMEscan; format: binding; details: read-out: percent of control
Description: as §1

ABL2 = ABL2 (Homo sapiens (Human), UniProt P42684); test: KINOMEscan; format: binding; details: read-out: percent of control
Description: as §1

EGFR(L861Q) = EGFR(L861Q) (Homo sapiens (Human), UniProt P00533, L861Q); test: KINOMEscan; format: binding; details: read-out: percent of control
Description: as §1

JNK1 = JNK1 (Homo sapiens (Human), UniProt P45983); test: KINOMEscan; format: binding; details: read-out: percent of control
Description: as §1

CLK3 = CLK3 (Homo sapiens (Human), UniProt P49761); test: KINOMEscan; format: binding; details: read-out: percent of control
Sequence of CLK3 (P49761 whole entry): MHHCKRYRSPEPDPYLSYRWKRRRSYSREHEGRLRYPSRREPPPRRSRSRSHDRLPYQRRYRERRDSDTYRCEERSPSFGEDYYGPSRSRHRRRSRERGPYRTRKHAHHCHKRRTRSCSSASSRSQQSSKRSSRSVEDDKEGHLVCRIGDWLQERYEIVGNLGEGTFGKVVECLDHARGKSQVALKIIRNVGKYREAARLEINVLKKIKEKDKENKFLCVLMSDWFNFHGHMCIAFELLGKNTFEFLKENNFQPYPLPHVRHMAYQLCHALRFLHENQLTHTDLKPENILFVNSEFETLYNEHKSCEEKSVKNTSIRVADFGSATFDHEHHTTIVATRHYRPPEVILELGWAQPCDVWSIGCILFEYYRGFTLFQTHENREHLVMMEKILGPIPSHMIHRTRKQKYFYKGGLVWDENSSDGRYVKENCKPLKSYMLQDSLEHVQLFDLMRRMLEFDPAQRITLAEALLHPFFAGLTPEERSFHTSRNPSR
Description: as §1

EPHA3 = EPHA3 (Homo sapiens (Human), UniProt P29320); test: KINOMEscan; format: binding; details: read-out: percent of control
Description: as §1

[1] = biological target: ABL1(H396P)-nonphosphorylated (Homo sapiens (Human), UniProt P00519, H396P); test: KINOMEscan; format: binding; details: read-out: percent of control
Description: as §1

ROS1 = ROS1 (Homo sapiens (Human), UniProt P08922); test: KINOMEscan; format: binding; details: read-out: percent of control
Description: as §1

PHKG2 = PHKG2 (Homo sapiens (Human), UniProt P15735); test: KINOMEscan; format: binding; details: read-out: percent of control
Sequence of PHKG2 (P15735 whole entry): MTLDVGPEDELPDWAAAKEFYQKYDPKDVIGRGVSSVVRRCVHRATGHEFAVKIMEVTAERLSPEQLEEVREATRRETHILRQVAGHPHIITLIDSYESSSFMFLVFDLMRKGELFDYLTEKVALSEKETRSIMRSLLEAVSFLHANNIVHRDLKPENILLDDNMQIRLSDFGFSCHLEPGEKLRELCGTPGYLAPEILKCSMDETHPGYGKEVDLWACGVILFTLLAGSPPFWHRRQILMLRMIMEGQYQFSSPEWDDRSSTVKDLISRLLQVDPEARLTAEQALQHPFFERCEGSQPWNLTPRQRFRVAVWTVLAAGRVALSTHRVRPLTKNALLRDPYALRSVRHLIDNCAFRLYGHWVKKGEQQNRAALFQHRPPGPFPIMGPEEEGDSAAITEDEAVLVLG
Description: as §1

ERK2 = ERK2 (Homo sapiens (Human), UniProt P28482); test: KINOMEscan; format: binding; details: read-out: percent of control
Description: as §1

NEK10 = NEK10 (Homo sapiens (Human), UniProt Q6ZWH5); test: KINOMEscan; format: binding; details: read-out: percent of control
Description: as §1

FRK = FRK (Homo sapiens (Human), UniProt P42685); test: KINOMEscan; format: binding; details: read-out: percent of control
Sequence of FRK (P42685 whole entry): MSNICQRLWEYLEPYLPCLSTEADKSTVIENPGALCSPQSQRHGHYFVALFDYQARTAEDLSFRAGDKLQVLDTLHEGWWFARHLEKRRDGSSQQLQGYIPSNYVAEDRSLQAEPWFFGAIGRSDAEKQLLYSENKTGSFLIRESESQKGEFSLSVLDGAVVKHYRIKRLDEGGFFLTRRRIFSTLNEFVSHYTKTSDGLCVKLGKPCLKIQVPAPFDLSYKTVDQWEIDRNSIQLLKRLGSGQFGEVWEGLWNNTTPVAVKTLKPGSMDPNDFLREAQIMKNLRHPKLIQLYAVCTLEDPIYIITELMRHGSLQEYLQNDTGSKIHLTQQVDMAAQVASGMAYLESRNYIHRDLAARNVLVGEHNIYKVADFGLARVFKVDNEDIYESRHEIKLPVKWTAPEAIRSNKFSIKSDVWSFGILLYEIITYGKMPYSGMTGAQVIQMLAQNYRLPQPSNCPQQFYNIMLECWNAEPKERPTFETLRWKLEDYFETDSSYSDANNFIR
Description: as §1

MEK3 = MEK3 (Homo sapiens (Human), UniProt P46734); test: KINOMEscan; format: binding; details: read-out: percent of control
Description: as §1

HIPK2 = HIPK2 (Homo sapiens (Human), UniProt Q9H2X6); test: KINOMEscan; format: binding; details: read-out: percent of control
Description: as §1

TYK2(JH2domainpseudokia) = biological target: TYK2(JH2domainpseudokia (Homo sapiens (Human), UniProt P29597)); test: KINOMEscan; format: binding; details: read-out: percent of control
Sequence of TYK2(JH2domainpseudokia (P29597 589-875): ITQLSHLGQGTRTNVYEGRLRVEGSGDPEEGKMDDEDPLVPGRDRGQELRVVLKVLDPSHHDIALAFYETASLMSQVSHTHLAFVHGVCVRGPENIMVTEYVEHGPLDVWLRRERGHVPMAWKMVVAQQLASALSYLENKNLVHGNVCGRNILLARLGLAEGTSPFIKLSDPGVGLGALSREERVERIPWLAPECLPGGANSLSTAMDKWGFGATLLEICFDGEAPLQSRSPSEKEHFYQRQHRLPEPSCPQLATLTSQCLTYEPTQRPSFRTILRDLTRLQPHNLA
Description: as §1

CSNK1A1 = CSNK1A1 (Homo sapiens (Human), UniProt P48729); test: KINOMEscan; format: binding; details: read-out: percent of control
Description: as §1

ALK(L1196M) = ALK(L1196M) (Homo sapiens (Human), UniProt Q9UM73, L1196M); test: KINOMEscan; format: binding; details: read-out: percent of control
Description: as §1

FLT3 (ITD) = test: KINOMEscan; format: binding; details: 1 μM
Description: as §1

TIE2 = TIE2 (Homo sapiens (Human), UniProt Q02763); test: KINOMEscan; format: binding; details: read-out: percent of control
Sequence of TIE2 (Q02763 23-1124): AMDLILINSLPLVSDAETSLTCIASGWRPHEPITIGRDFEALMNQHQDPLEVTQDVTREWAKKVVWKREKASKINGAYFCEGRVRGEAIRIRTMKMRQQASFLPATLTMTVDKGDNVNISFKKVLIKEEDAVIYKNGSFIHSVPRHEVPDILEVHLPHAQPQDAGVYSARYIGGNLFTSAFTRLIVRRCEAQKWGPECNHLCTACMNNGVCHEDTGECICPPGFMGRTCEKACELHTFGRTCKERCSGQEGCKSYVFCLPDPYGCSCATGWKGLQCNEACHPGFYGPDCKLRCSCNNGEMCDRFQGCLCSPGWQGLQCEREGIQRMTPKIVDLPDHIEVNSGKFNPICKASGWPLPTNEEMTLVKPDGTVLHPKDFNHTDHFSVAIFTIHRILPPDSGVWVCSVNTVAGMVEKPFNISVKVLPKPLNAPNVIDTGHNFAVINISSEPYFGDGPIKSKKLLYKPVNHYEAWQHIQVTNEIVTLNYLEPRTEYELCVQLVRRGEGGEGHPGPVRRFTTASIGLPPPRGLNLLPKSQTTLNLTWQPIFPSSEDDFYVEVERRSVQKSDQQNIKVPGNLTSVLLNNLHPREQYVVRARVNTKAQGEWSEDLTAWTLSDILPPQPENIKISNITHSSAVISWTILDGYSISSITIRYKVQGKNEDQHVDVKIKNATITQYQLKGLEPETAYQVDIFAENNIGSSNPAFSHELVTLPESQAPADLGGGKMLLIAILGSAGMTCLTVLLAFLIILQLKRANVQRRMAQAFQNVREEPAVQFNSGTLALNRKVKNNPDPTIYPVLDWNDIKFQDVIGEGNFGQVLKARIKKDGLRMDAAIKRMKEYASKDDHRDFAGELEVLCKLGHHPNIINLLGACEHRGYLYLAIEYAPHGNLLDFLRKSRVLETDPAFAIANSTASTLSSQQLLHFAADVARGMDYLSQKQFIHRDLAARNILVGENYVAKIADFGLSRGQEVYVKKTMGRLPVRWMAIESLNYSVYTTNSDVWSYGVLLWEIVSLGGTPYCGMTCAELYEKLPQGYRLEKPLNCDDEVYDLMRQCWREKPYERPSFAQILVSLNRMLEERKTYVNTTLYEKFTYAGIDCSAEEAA
Description: as §1

FLT3 = FLT3 (Homo sapiens (Human), UniProt P36888); test: KINOMEscan; format: binding; details: read-out: percent of control
Sequence of FLT3 (P36888 27-993): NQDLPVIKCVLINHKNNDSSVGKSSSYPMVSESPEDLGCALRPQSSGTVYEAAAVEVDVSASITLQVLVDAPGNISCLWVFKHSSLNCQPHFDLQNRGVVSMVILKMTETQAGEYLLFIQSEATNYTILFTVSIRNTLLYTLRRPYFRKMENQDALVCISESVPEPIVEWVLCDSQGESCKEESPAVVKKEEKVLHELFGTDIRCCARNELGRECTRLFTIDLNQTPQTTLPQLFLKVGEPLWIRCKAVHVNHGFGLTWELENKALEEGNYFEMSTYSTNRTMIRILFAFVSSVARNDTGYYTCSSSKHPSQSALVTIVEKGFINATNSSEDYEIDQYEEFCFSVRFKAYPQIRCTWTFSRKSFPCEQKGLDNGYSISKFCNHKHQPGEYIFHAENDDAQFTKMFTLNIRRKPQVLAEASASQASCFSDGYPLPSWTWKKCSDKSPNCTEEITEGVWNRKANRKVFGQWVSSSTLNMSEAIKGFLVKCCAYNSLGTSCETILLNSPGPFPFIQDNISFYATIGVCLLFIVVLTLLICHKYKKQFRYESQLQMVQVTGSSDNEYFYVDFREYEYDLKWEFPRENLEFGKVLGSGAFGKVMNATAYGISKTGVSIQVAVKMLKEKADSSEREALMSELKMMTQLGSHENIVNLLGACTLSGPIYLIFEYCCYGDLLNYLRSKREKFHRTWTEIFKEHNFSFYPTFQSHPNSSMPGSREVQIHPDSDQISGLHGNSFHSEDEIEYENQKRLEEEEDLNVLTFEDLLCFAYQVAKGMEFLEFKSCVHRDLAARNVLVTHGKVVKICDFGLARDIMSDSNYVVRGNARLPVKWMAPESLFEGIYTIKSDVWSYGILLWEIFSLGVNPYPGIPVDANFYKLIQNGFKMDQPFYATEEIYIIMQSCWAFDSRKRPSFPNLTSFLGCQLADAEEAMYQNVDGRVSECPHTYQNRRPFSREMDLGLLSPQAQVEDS
Description: as §1

NEK4 = NEK4 (Homo sapiens (Human), UniProt P51957); test: KINOMEscan; format: binding; details: read-out: percent of control
Description: as §1

CDC2L5 = CDC2L5 (Homo sapiens (Human), UniProt Q14004); test: KINOMEscan; format: binding; details: read-out: percent of control
Description: as §1

MRCKA = MRCKA (Homo sapiens (Human), UniProt Q5VT25); test: KINOMEscan; format: binding; details: read-out: percent of control
Description: as §1

FLT1 = FLT1 (Homo sapiens (Human), UniProt P17948); test: KINOMEscan; format: binding; details: read-out: percent of control
Description: as §1

EPHA1 = EPHA1 (Homo sapiens (Human), UniProt P21709); test: KINOMEscan; format: binding; details: read-out: percent of control
Description: as §1

SLK = SLK (Homo sapiens (Human), UniProt Q9H2G2); test: KINOMEscan; format: binding; details: read-out: percent of control
Description: as §1

STK16 = STK16 (Homo sapiens (Human), UniProt O75716); test: KINOMEscan; format: binding; details: read-out: percent of control
Sequence of STK16 (O75716 whole entry): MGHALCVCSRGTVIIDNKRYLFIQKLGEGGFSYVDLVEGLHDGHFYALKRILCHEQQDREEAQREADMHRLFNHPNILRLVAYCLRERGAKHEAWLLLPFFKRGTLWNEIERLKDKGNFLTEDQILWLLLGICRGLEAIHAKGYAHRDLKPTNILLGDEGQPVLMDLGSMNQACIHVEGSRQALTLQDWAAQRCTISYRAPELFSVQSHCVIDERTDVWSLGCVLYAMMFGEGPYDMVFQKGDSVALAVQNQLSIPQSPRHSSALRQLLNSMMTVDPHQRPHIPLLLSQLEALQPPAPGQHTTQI
Description: as §1

EGFR(L747-E749del,A750P) = EGFR(L747-E749del,A750P) (Homo sapiens (Human), UniProt P00533, A750P/DEL747-749); test: KINOMEscan; format: binding; details: read-out: percent of control
Sequence of EGFR(L747-E749del,A750P) (P00533 other isoform, or with tags, fused parts or gaps A750P/del 1-668/del 747-749/del 1012-1210 limits assumed): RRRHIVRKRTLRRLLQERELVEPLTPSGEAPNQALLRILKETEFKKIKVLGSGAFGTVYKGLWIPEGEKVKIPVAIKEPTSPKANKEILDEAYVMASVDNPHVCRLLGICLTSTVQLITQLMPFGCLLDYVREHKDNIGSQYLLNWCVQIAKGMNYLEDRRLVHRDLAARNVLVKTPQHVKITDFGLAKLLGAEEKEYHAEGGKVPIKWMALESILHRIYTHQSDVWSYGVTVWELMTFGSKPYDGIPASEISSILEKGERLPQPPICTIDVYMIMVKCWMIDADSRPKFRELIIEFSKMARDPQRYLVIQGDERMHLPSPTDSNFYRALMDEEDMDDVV
Description: as §1

RIPK1 = RIPK1 (Homo sapiens (Human), UniProt Q13546); test: KINOMEscan; format: binding; details: read-out: percent of control
Description: as §1

CSNK2A1 = CSNK2A1 (Homo sapiens (Human), UniProt P68400); test: KINOMEscan; format: binding; details: read-out: percent of control
Sequence of CSNK2A1 (P68400 whole entry): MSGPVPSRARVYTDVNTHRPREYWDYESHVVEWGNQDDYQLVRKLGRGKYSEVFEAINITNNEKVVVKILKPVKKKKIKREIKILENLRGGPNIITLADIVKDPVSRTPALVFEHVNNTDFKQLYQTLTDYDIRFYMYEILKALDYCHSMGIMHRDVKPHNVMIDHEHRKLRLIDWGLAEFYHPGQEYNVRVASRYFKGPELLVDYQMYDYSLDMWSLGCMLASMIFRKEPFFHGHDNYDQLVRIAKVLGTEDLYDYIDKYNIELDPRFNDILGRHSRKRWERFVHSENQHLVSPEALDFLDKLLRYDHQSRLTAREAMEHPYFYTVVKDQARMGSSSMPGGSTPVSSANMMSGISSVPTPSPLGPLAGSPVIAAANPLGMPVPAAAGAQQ
Description: as §1

PIK3CA(C420R) = PIK3CA(C420R) (Homo sapiens (Human), UniProt P42336, C420R); test: KINOMEscan; format: binding; details: read-out: percent of control
Description: as §1

MAPKAPK5 = MAPKAPK5 (Homo sapiens (Human), UniProt Q8IW41); test: KINOMEscan; format: binding; details: read-out: percent of control
Description: as §1

[2] = biological target: RPS6KA5 (Kin.Dom.1-N-terminal) (Homo sapiens (Human), UniProt O75582); test: KINOMEscan; format: binding; details: read-out: percent of control
Description: as §1

NEK6 = NEK6 (Homo sapiens (Human), UniProt Q9HC98); test: KINOMEscan; format: binding; details: read-out: percent of control
Description: as §1

CLK1 = CLK1 (Homo sapiens (Human), UniProt P49759); test: KINOMEscan; format: binding; details: read-out: percent of control
Description: as §1

GAK = GAK (Homo sapiens (Human), UniProt O14976); test: KINOMEscan; format: binding; details: read-out: percent of control
Description: as §1

CCN1CCN(Cc2cc(NC(=O)c3ccc(C)c(-c4ccc5nc(NC(=O)C6CC6)cn5n4)c3)cc(C(F)(F)F)c2)CC1 [Compound I-2, 3-(2-(cyclopropanecarboxamido)imidazo[1,2-b]pyridazin-6-yl)-N-(3-((4-ethylpiperazin-1-yl)methyl)-5-(trifluoromethyl)phenyl)-4-methylbenzamide]
IC50 (JAK2): 190 nM
remaining binding at 1 µM (IRAK1): 18%
remaining binding at 1 µM (FGFR1): 77%
remaining binding at 1 µM (ABL2): 0.4%
remaining binding at 1 µM (EGFR(L861Q)): 82%
remaining binding at 1 µM (JNK1): 96%
remaining binding at 1 µM (CLK3): 79%
remaining binding at 1 µM (EPHA3): 41%
remaining binding at 1 µM [1]: 0%
remaining binding at 1 µM (ROS1): 52%
remaining binding at 1 µM (PHKG2): 93%
remaining binding at 1 µM (ERK2): 100%
remaining binding at 1 µM (NEK10): 75%
remaining binding at 1 µM (FRK): 3.9%
remaining binding at 1 µM (MEK3): 71%
remaining binding at 1 µM (HIPK2): 93%
remaining binding at 1 µM (TYK2(JH2domainpseudokia)): 80%
remaining binding at 1 µM (CSNK1A1): 73%
remaining binding at 1 µM (ALK(L1196M)): 9.9%
percent of control (FLT3 (ITD)): 1.6%
remaining binding at 1 µM (TIE2): 0.1%
remaining binding at 1 µM (FLT3): 1%
remaining binding at 1 µM (NEK4): 28%
remaining binding at 1 µM (CDC2L5): 0.3%
remaining binding at 1 µM (MRCKA): 91%
remaining binding at 1 µM (FLT1): 3.2%
remaining binding at 1 µM (EPHA1): 44%
remaining binding at 1 µM (SLK): 1.6%
remaining binding at 1 µM (STK16): 90%
remaining binding at 1 µM (EGFR(L747-E749del,A750P)): 14%
remaining binding at 1 µM (RIPK1): 0.45%
remaining binding at 1 µM (CSNK2A1): 98%
remaining binding at 1 µM (PIK3CA(C420R)): 85%
remaining binding at 1 µM (MAPKAPK5): 72%
remaining binding at 1 µM [2]: 73%
remaining binding at 1 µM (NEK6): 100%
remaining binding at 1 µM (CLK1): 7.9%
remaining binding at 1 µM (GAK): 99%

CCN1CCN(Cc2cc(NC(=O)c3ccc(C)c(-c4ccc5nc(NC(=O)C6CC6)cn5c4)c3)cc(C(F)(F)F)c2)CC1 [Compound I-6, 3-(2-(cyclopropanecarboxamido)imidazo[1,2-a]pyridin-6-yl)-N-(3-((4-ethylpiperazin-1-yl)methyl)-5-(trifluoromethyl)phenyl)-4-methylbenzamide]
IC50 (JAK2): 284 nM
remaining binding at 1 µM (IRAK1): 29%
remaining binding at 1 µM (FGFR1): 57%
remaining binding at 1 µM (ABL2): 0.4%
remaining binding at 1 µM (EGFR(L861Q)): 54%
remaining binding at 1 µM (JNK1): 96%
remaining binding at 1 µM (CLK3): 84%
remaining binding at 1 µM (EPHA3): 34%
remaining binding at 1 µM [1]: 0%
remaining binding at 1 µM (ROS1): 59%
remaining binding at 1 µM (PHKG2): 98%
remaining binding at 1 µM (ERK2): 100%
remaining binding at 1 µM (NEK10): 62%
remaining binding at 1 µM (FRK): 3.2%
remaining binding at 1 µM (MEK3): 87%
remaining binding at 1 µM (HIPK2): 94%
remaining binding at 1 µM (TYK2(JH2domainpseudokia)): 95%
remaining binding at 1 µM (CSNK1A1): 100%
remaining binding at 1 µM (ALK(L1196M)): 21%
percent of control (FLT3 (ITD)): 1.4%
remaining binding at 1 µM (TIE2): 0.25%
remaining binding at 1 µM (FLT3): 2.5%
remaining binding at 1 µM (NEK4): 15%
remaining binding at 1 µM (CDC2L5): 0.75%
remaining binding at 1 µM (MRCKA): 100%
remaining binding at 1 µM (FLT1): 3.2%
remaining binding at 1 µM (EPHA1): 38%
remaining binding at 1 µM (SLK): 2.4%
remaining binding at 1 µM (STK16): 95%
remaining binding at 1 µM (EGFR(L747-E749del,A750P)): 18%
remaining binding at 1 µM (RIPK1): 0.75%
remaining binding at 1 µM (CSNK2A1): 100%
remaining binding at 1 µM (PIK3CA(C420R)): 95%
remaining binding at 1 µM (MAPKAPK5): 100%
remaining binding at 1 µM [2]: 66%
remaining binding at 1 µM (NEK6): 100%
remaining binding at 1 µM (CLK1): 20%
remaining binding at 1 µM (GAK): 93%
